# In patent US6642392B1 (priority 1997, dated 2003):
# Like-named read-outs stand apart in the source and are kept apart here.
# Key:
# Type in all cases: in vivo
# [1] = tested on: Eiysiphe graminis f. sp. tritici; assay: Test A: wheat powdery mildew, preventive spray on wheat seedlings; details: for Test A disease control rating (100 = 100% disease control, 0 = no disease control): rating relative to controls; for Test A disease control rating: wheat powdery mildew, 100 = 100% disease control, 0 = no control relative to controls, unmarked entries (standard test concentration)
# Method in brief: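 Compounds (3% acetone, 250 ppm Trem 014) sprayed to run-off on wheat seedlings, inoculated next day with spore dust. Incubated 7 days at 20° C before disease rating, 0–100% control relative to untreated controls.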
# Puccinia recondita = assay: Test B: wheat leaf rust, preventive spray on wheat seedlings; details: for Test B disease control rating (100 = 100% disease control, 0 = no disease control): rating relative to controls; for Test B disease control rating: wheat leaf rust, 100 = 100% disease control, 0 = no control, unmarked entries (standard test concentration)
# Method in brief: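 Wheat seedlings were sprayed to run-off with compound (3% acetone, 250 ppm Trem 014), then inoculated with P. recondita spores the next day. They were held 24 h saturated at 20 °C, then 6 days at 20 °C. Ratings are 0–100% disease control versus controls.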
# Pyricularia oryzae = details: for Test C disease control rating (100 = 100% disease control, 0 = no disease control): rating relative to controls; for Test C disease control rating: rice blast, 100 = 100% disease control, 0 = no control, unmarked entries (standard test concentration)
# Phytophthora infestans = details: for Test D disease control rating (100 = 100% disease control, 0 = no disease control): rating relative to controls; for Test D disease control rating: tomato late blight, 100 = 100% disease control, 0 = no control, unmarked entries (standard test concentration)
# Botrytis cinerea = assay: Test E: gray mold, preventive spray on cucumber seedlings; details: for Test E disease control rating (100 = 100% disease control, 0 = no disease control): rating relative to controls; for Test E disease control rating: gray mold on cucumber, 100 = 100% disease control, 0 = no control, unmarked entries (standard test concentration)
# Method in brief: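 Compounds in 3% acetone were suspended with 250 ppm Trem 014 surfactant and sprayed to run-off on cucumber seedlings. B. cinerea spores were inoculated next day, then 48 h saturated humidity at 20° C and 5 days at 20° C. Disease control rated 0–100% versus controls.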
# [2] = tested at 40 ppm, wheat seedlings
# [3] = wheat seedlings sprayed to run-off, inoculated the following day, unmarked compounds (standard test rate)
# [4] = rice seedlings sprayed to run-off, inoculated the following day, unmarked compounds (standard test rate)
# [5] = tomato seedlings sprayed to run-off, inoculated the following day, unmarked compounds (standard test rate)
# [6] = cucumber seedlings sprayed to run-off, inoculated the following day, unmarked compounds (standard test rate)
SMILES,Test A disease control rating [1] [%],Test B disease control rating (Puccinia recondita) [%],Test C disease control rating (Pyricularia oryzae) [%],Test D disease control rating (Phytophthora infestans) [%],Test E disease control rating (Botrytis cinerea) [%],further results
CCC1(C(=O)NC(C)COc2cccc(CF)c2)C(C)C1(Cl)Cl (mixture of isomers) [compound 317],–,–,–,–,–,"Test A disease control rating (100 = 100% disease control, 0 = no disease control) [1, 2]: 57%; Test B disease control rating (100 = 100% disease control, 0 = no disease control) (Puccinia recondita; [2]): 0%; Test C disease control rating (100 = 100% disease control, 0 = no disease control) (Pyricularia oryzae; tested at 40 ppm, rice seedlings): 85%; Test D disease control rating (100 = 100% disease control, 0 = no disease control) (Phytophthora infestans; tested at 40 ppm, tomato seedlings): 19%; Test E disease control rating (100 = 100% disease control, 0 = no disease control) (Botrytis cinerea; tested at 40 ppm, cucumber seedlings): 0%"
CC(C)(C)C(C#N)C(=O)NCCCc1ccccc1 (racemic) [compound 54],34,11,32,0,16,–
CC(C)(C)C(C#N)C(=O)NCCCn1c(C#N)cc(Cl)c1Cl (racemic) [compound 55],0,0,85,0,0,–
CC(C)(C)C(C#N)C(=O)NC/C=C/c1ccccc1 (racemic) [compound 167],0,0,74,23,0,–
CC(C)(C)C(C#N)C(=O)NC/C=C/c1ccccc1F (racemic) [compound 178],0,0,53,0,58,–
CC(C)(C)C(C#N)C(=O)NC/C=C/c1ccccc1Cl (racemic) [compound 179],35,0,74,23,58,–
CC(C)(C)C(C#N)C(=O)NC/C=C/c1cccc(Cl)c1 (racemic) [compound 180],61,0,74,76,0,–
CC(C)(C)C(C#N)C(=O)NC/C=C/c1cccc(Br)c1 (racemic) [compound 272],–,–,–,–,–,"Test A disease control rating (100 = 100% disease control, 0 = no disease control) [1, 3]: 76%; Test B disease control rating (100 = 100% disease control, 0 = no disease control) (Puccinia recondita; [3]): 0%; Test C disease control rating (100 = 100% disease control, 0 = no disease control) (Pyricularia oryzae; [4]): 53%; Test D disease control rating (100 = 100% disease control, 0 = no disease control) (Phytophthora infestans; [5]): 63%; Test E disease control rating (100 = 100% disease control, 0 = no disease control) (Botrytis cinerea; [6]): 0%"
CC(C)(C)C(C#N)C(=O)NC/C=C/c1ccc(F)cc1F (racemic) [compound 273],–,–,–,–,–,"Test A disease control rating (100 = 100% disease control, 0 = no disease control) [1, 3]: 86%; Test B disease control rating (100 = 100% disease control, 0 = no disease control) (Puccinia recondita; [3]): 0%; Test C disease control rating (100 = 100% disease control, 0 = no disease control) (Pyricularia oryzae; [4]): 53%; Test D disease control rating (100 = 100% disease control, 0 = no disease control) (Phytophthora infestans; [5]): 23%; Test E disease control rating (100 = 100% disease control, 0 = no disease control) (Botrytis cinerea; [6]): 0%"
CC(C)(C)C(C#N)C(=O)NC/C=C/c1ccc(Cl)cc1Cl (racemic) [compound 274],–,–,–,–,–,"Test A disease control rating (100 = 100% disease control, 0 = no disease control) [1, 3]: 61%; Test B disease control rating (100 = 100% disease control, 0 = no disease control) (Puccinia recondita; [3]): 28%; Test C disease control rating (100 = 100% disease control, 0 = no disease control) (Pyricularia oryzae; [4]): 74%; Test D disease control rating (100 = 100% disease control, 0 = no disease control) (Phytophthora infestans; [5]): 23%; Test E disease control rating (100 = 100% disease control, 0 = no disease control) (Botrytis cinerea; [6]): 58%"
"CC(COc1ccccc1)NC(=O)C(C#N)C(C)(C)C (single isomer, unassigned) [1b]",34,11,74,0,0,–
"CC(COc1ccccc1)NC(=O)C(C#N)C(C)(C)C (single isomer, unassigned) [1c]",60,85,73,16,0,–
